Laboratory results as given in patent US20190076436A1, “MACROCYCLIC COMPOUNDS AS ROS1 KINASE INHIBITORS” (Array BioPharma Inc., priority 2017, published 2019).

Assays:
Format in all cases: biochemical
wild type ROS1 = wild type ROS1 (Homo sapiens, UniProt P08922); assay: Inhibition of wild type ROS1 kinase, CisBio HTRF KinEASE-TK assay; conditions: read-out: ROS1 wT IC50
Experimental: (§1) The potency of a compound inhibiting wild type and exemplary mutant ROS1 kinases was determined using CisBio's HTRF Kinease-TK assay technology. […] No. […] No. […] Each kinase is incubated with 250 nM TK-substrate biotin (CisBio, Cat. No. 62TKOPEC) and 1 mM ATP along with test compound in a buffer consisting of 25 mM MOPS [pH 7.4], 5 mM MgCl2, 0.005% Triton X-100, and 2% DMSO in a volume of 8 μL. […] After a 1 hour incubation at 22° C., the extent of reaction was determined using a PerkinElmer EnVision multimode plate reader via HTRF dual wavelength detection, and the percent of control (POC) was calculated using a ratiometric emission factor. 100 POC is determined using no test compound and 0 POC is determined in the absence of enzyme.

G2032R ROS1 = G2032R ROS1 (Homo sapiens, UniProt P08922, G2032R); assay: Inhibition of G2032R ROS1 kinase, CisBio HTRF KinEASE-TK assay
Experimental: as §1

L2026M ROS1 = L2026M ROS1 (Homo sapiens, UniProt P08922, L2026M); assay: Inhibition of L2026M ROS1 kinase, CisBio HTRF KinEASE-TK assay
Experimental: as §1

D2033N ROS1 = D2033N ROS1 (Homo sapiens, UniProt P08922, D2033N); assay: Inhibition of D2033N ROS1 kinase, CisBio HTRF KinEASE-TK assay
Experimental: as §1

Sequence of D2033N ROS1 (P08922 28-2347 D2033N): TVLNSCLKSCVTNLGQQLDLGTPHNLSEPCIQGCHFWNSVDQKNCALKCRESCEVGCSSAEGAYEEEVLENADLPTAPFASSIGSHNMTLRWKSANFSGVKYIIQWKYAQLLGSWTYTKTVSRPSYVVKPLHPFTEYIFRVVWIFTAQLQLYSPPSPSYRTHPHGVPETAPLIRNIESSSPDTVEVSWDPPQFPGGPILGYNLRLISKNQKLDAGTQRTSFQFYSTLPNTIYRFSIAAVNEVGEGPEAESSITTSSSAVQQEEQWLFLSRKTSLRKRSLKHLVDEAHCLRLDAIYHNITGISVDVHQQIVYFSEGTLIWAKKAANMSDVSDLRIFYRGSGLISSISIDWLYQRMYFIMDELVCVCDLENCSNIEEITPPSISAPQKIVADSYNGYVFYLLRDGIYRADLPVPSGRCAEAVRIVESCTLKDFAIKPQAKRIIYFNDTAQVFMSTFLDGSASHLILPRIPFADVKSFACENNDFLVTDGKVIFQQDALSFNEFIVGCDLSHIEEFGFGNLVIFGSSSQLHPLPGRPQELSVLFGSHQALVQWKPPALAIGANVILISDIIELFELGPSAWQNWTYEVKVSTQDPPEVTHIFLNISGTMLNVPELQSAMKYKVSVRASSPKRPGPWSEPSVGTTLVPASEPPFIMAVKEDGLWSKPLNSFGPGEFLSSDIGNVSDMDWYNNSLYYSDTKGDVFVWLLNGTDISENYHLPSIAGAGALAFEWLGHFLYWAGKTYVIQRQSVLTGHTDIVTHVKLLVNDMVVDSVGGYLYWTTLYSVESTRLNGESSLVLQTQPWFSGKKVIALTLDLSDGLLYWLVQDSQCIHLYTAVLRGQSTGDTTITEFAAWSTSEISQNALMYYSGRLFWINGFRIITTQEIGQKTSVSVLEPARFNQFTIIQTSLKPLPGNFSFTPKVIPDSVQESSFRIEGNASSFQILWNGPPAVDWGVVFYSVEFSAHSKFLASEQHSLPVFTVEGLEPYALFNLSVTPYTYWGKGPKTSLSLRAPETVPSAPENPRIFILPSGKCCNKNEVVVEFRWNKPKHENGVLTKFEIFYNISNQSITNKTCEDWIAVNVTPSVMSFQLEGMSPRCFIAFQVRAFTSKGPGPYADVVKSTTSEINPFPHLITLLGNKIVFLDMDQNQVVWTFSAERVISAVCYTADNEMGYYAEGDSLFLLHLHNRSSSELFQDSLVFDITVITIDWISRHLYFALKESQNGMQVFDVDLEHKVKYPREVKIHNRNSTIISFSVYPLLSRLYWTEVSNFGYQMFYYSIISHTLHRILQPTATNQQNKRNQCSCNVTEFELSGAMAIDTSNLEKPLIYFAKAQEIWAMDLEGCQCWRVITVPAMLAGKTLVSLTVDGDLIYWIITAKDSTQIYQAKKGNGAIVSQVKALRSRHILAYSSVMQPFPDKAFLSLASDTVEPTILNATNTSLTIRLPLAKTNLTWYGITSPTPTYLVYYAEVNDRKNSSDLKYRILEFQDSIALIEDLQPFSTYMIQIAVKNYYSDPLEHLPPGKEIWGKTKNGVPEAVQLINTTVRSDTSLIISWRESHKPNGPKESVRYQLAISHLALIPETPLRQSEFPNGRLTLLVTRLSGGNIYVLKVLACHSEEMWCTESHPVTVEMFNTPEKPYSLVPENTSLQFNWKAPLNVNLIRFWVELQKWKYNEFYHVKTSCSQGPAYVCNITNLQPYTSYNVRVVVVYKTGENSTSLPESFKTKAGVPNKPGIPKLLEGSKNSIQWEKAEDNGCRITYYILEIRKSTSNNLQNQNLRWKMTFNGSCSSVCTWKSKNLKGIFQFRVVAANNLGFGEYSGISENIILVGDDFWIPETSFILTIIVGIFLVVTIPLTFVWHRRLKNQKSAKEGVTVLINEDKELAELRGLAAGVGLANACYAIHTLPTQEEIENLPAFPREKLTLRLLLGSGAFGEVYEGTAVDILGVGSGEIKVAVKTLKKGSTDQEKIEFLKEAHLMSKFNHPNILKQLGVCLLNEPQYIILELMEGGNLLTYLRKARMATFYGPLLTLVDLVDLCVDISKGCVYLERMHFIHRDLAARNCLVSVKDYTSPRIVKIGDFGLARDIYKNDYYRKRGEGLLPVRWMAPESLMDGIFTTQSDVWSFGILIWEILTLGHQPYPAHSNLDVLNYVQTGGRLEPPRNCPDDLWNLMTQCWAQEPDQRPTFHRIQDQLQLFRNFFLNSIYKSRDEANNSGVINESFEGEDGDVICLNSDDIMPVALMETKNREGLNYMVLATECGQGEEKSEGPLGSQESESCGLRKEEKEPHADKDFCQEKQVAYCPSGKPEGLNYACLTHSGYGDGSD
Sequence of L2026M ROS1 (P08922 28-2347 L2026M): as the sequence (P08922 28-2347 D2033N) above, with L1999M, N2006D counted along it
Sequence of wild type ROS1 (P08922 1883-2347 limits assumed): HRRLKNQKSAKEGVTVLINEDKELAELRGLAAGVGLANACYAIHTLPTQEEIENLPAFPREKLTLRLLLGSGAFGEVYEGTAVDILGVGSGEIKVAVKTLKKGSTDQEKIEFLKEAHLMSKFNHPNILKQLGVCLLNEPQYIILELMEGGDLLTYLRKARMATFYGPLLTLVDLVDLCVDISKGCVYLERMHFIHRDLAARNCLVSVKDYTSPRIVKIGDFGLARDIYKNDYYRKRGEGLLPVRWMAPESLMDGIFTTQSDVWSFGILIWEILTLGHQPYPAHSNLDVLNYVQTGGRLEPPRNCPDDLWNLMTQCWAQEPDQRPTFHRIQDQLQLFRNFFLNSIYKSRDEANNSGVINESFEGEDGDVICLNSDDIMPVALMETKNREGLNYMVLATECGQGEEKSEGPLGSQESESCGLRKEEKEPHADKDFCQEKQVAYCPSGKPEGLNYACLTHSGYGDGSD
Sequence of G2032R ROS1 (P08922 1883-2347 G2032R limits assumed): as the sequence (P08922 1883-2347 limits assumed) above, with G150R counted along it

**Q.** With `O=C1NC[C@H](O)COc2ccc(F)cc2C2CC(F)(F)CN2c2ccn3ncc1c3n2` (single isomer, unassigned) [Compound 45] as the compound, how does the IC50 (wild type ROS1) read?
**A.** The IC50 was 6.1 nM.

**Q.** And the IC50 (G2032R ROS1)?
**A.** Its IC50 is 114 nM.

**Q.** What about the IC50 (L2026M ROS1) of the same compound?
**A.** Its IC50 is 4.6 nM.

**Q.** What about the IC50 (D2033N ROS1) of the same compound?
**A.** Its IC50 is 16.8 nM.

**Q.** With `O=C1NCCCOc2cccc(n2)[C@H]2CCCN2c2ccn3ncc1c3n2` [Compound 2, (6R)-12-oxa-2,16,20,21,24,26-hexaazapentacyclo[16.5.2.1^7,11.0^2,6.0^21,25] hexacosa-1(24),7(26),8,10,18(25),19,22-heptaen-17-one] as the compound, how does the IC50 (wild type ROS1) read?
**A.** Its IC50 is 80.3 nM.

**Q.** And the IC50 (G2032R ROS1)?
**A.** The IC50 was 1060 nM.

**Q.** What about the IC50 (L2026M ROS1) of the same compound?
**A.** The IC50 was 67 nM.

**Q.** What about the IC50 (D2033N ROS1) of the same compound?
**A.** Its IC50 is 11.9 nM.

**Q.** What does the source list for `O=C1NCCCOc2ncc(F)cc2[C@H]2CCCN2c2ccn3ncc1c3n2` [Compound 3, (6R)-9-fluoro-13-oxa-2,11,17,21,22,25-hexaazapentacyclo[17.5.2.0^2,6.0^7,12.0^22,26] hexacosa-1(25),7,9,11,19(26),20,23-heptaen-18-one]?
**A.** IC50 (wild type ROS1): 1.2 nM; IC50 (G2032R ROS1): 9.4 nM; IC50 (L2026M ROS1): 1.2 nM; IC50 (D2033N ROS1): 0.3 nM

**Q.** How did the IC50 (wild type ROS1) turn out when `O=C1NC[C@@H](O)COc2ncc(F)cc2[C@H]2CCCN2c2ccn3ncc1c3n2` [Compound 7, (6R,15R)-9-fluoro-15-hydroxy-13-oxa-2,11,17,21,22,25-hexaazapentacyclo-[17.5.2.0^2,6.0^7,12.0^22,26]hexacosa-1(25),7,9,11,19(26),20,23-heptaen-18-one] was run?
**A.** Its IC50 is 3.1 nM.

**Q.** What about the IC50 (G2032R ROS1) of the same compound?
**A.** Its IC50 is 29.2 nM.

**Q.** What about the IC50 (L2026M ROS1) of the same compound?
**A.** Its IC50 is 2.9 nM.

**Q.** And the IC50 (D2033N ROS1)?
**A.** Its IC50 is 0.6 nM.

**Q.** Which results are given for `O=C1NCCOc2ncc(F)cc2[C@H]2CCCN2c2ccn3ncc1c3n2` [Compound 9, (6R)-9-fluoro-13-oxa-2,11,16,20,21,24-hexaazapentacyclo[16.5.2.0^2,6.0^7,12.0^21,25] pentacosa-1(24),7,9,11,18(25),19,22-heptaen-17-one]?
**A.** IC50 (wild type ROS1): 9.2 nM; IC50 (G2032R ROS1): 98.6 nM; IC50 (L2026M ROS1): 10.2 nM; IC50 (D2033N ROS1): 1.7 nM

**Q.** Which results are given for `O=C1OCCOc2ncc(F)cc2[C@H]2CCCN2c2ccn3ncc1c3n2` [Compound 14]?
**A.** IC50 (wild type ROS1): 28.9 nM; IC50 (G2032R ROS1): 107 nM; IC50 (L2026M ROS1): 30.3 nM; IC50 (D2033N ROS1): 7.6 nM

**Q.** Which results are given for `O=C1NCC(F)(F)COc2ncc(F)cc2[C@H]2CCCN2c2ccn3ncc1c3n2` [Compound 19, (6R)-9,15,15-trifluoro-13-oxa-2,11,17,21,22,25-hexaazapentacyclo[17.5.2.0^2,6.0^7,12.0^22,26] hexacosa-1(25),7,9,11,19(26),20,23-heptaen-18-one]?
**A.** IC50 (wild type ROS1): 2.4 nM; IC50 (G2032R ROS1): 14.4 nM; IC50 (L2026M ROS1): 2.4 nM; IC50 (D2033N ROS1): 1.2 nM

**Q.** What does the source list for `O=C1NCCCOc2ccc(F)cc2[C@H]2CCCN2c2ccn3ncc1c3n2` [Compound 20, (6R)-9-fluoro-13-oxa-2,17,21,22,25-pentaazapentacyclo[17.5.2.0^2,6.0^7,12.0^22,26] hexacosa-1(25),7,9,11,19(26),20,23-heptaen-18-one]?
**A.** IC50 (wild type ROS1): 2.5 nM; IC50 (G2032R ROS1): 21.6 nM; IC50 (L2026M ROS1): 2.2 nM; IC50 (D2033N ROS1): 2.8 nM

**Q.** With `CC(=O)N1CCOc2ccc(F)cc2[C@H]2CCCN2c2ccn3ncc(c3n2)C1` [Compound 22, 1-[(6R)-9-fluoro-13-oxa-2,16,20,21,24-pentaazapentacyclo[16.5.2.0^2,6.0^7,12.0^21,25]pentacosa-1(24),7,9,11,18(25),19,22-heptaen-16-yl]ethan-1-one] as the compound, how does the IC50 (wild type ROS1) read?
**A.** The IC50 was 331 nM.

**Q.** What about the IC50 (G2032R ROS1) of the same compound?
**A.** Its IC50 is 3980 nM.

**Q.** And the IC50 (L2026M ROS1)?
**A.** Its IC50 is 713 nM.

**Q.** What about the IC50 (D2033N ROS1) of the same compound?
**A.** Its IC50 is 397 nM.

**Q.** How did the IC50 (wild type ROS1) turn out when `C[C@H]1CNC(=O)c2cnn3ccc(nc23)N2CCC[C@@H]2c2cc(F)cn(c2=O)C1` [Compound 35, (6R,13S)-9-fluoro-13-methyl-2,11,15,19,20,23-hexaazapentacyclo [15.5.2.1^7,11.0^2,6.0^20,24]pentacosa-1(23),7,9,17(24),18,21-hexaene-16,25-dione] was run?
**A.** Its IC50 is 779 nM.

**Q.** What about the IC50 (G2032R ROS1) of the same compound?
**A.** The IC50 was 4930 nM.

**Q.** What about the IC50 (L2026M ROS1) of the same compound?
**A.** The IC50 was 589 nM.

**Q.** And the IC50 (D2033N ROS1)?
**A.** Its IC50 is 260 nM.
